Source: PubChem BioAssay AID248 (DTP/NCI, 2004)
Several values for one entry are separate records, joined by “and”; a condition that tells them apart may be missing. Equal values may be shown once. Inconclusive results and toxic doses are left out. Cut-off read from the data, not from the text of the source: active = T/C of 150% or more; inactive = T/C below 125%.

Tested on: L1210 leukemia ip in BDF1 mice, survival T/C
Assay: NCI In Vivo Anticancer Drug Screen. Data for tumor model L1210 Leukemia (intraperitoneal) in B6D2F1 (BDF1) mice
Conditions: endpoint: mean survival time, higher = longer survival
Method in brief: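 Antitumor effect is assessed in tumor-bearing animals. Survival in the compound arm is compared with a vehicle-dosed control arm and expressed as their quotient.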

[1] = dose: 100.0 mg/kg/injection, schedule: Q01DX001 (ip), vehicle: other
[2] = dose: 200.0 mg/kg/injection, schedule: Q01DX001 (ip), vehicle: other
[3] = dose: 400.0 mg/kg/injection, schedule: Q01DX001 (ip), vehicle: other
[4] = dose: 100.0 mg/kg/injection, schedule: Q01DX009 (ip), vehicle: Klucel (hydroxypropylcellulose) (HPC)
[5] = dose: 100.0 mg/kg/injection, schedule: Q04DX003 (ip), vehicle: Klucel (hydroxypropylcellulose) (HPC)
[6] = dose: 200.0 mg/kg/injection, schedule: Q01DX009 (ip), vehicle: Klucel (hydroxypropylcellulose) (HPC)
[7] = dose: 200.0 mg/kg/injection, schedule: Q04DX003 (ip), vehicle: Klucel (hydroxypropylcellulose) (HPC)
[8] = dose: 400.0 mg/kg/injection, schedule: Q01DX009 (ip), vehicle: Klucel (hydroxypropylcellulose) (HPC)
[9] = dose: 400.0 mg/kg/injection, schedule: Q04DX003 (ip), vehicle: Klucel (hydroxypropylcellulose) (HPC)
[10] = dose: 100.0 mg/kg/injection, schedule: Q04DX002 (ip), vehicle: Klucel (hydroxypropylcellulose) (HPC)

Measured: T/C

CCC(C)COC(=O)c1cccc2c1-c1ccccc1C2=O (stereo unspecified)
inactive: [1] 98 % of control | [2] 88 % of control | [3] 93 % of control

C(#CSCc1ccccc1)SCc1ccccc1
inactive: [4] 94 % of control | [5] 104 % of control | [6] 96 % of control | [7] 102 % of control | [8] 97 % of control | [9] 104 % of control

COc1ccccc1-n1c(=O)c(N=Nc2ccccc2C)c(O)n(-c2ccccc2C)c1=S
inactive: dose: 37.5 mg/kg/injection, schedule: Q01DX001 (ip), vehicle: Klucel (hydroxypropylcellulose) (HPC) 106 % of control | dose: 75.0 mg/kg/injection, schedule: Q01DX001 (ip), vehicle: Klucel (hydroxypropylcellulose) (HPC) 106 % of control | dose: 150.0 mg/kg/injection, schedule: Q01DX001 (ip), vehicle: Klucel (hydroxypropylcellulose) (HPC) 108 % of control

COc1c(Cl)cc([N+](=O)[O-])cc1Cl
inactive: dose: 25.0 mg/kg/injection, schedule: Q01DX009 (ip), vehicle: gum acacia 100 % of control | dose: 50.0 mg/kg/injection, schedule: Q01DX009 (ip), vehicle: gum acacia 106 % of control

CCCCCCCCCCCCCCCC(=O)Nc1cccc(C)c1C
inactive: dose: 100.0 mg/kg/injection, schedule: Q04DX002 (ip), vehicle: saline with Tween-80 93 % of control | dose: 200.0 mg/kg/injection, schedule: Q04DX002 (ip), vehicle: saline with Tween-80 86 % of control

COc1ccc(C2(c3ccccc3)OC(=O)c3ccccc32)c2ccccc12 (stereo unspecified)
inactive: [1] 110 % of control | dose: 100.0 mg/kg/injection, schedule: Q04DX003 (ip), vehicle: other 104 % of control | [2] 92 % of control | dose: 200.0 mg/kg/injection, schedule: Q04DX003 (ip), vehicle: other 100 % of control | [3] 86 % of control | dose: 400.0 mg/kg/injection, schedule: Q04DX003 (ip), vehicle: other 111 % of control

c1ccc2c(c1)Sc1ccccc1N2C[C@H]1CCCN2CCCC[C@H]12
inactive: dose: 75.0 mg/kg/injection, schedule: Q01DX009 (ip), vehicle: Klucel (hydroxypropylcellulose) (HPC) 102 % of control | dose: 75.0 mg/kg/injection, schedule: Q04DX003 (ip), vehicle: Klucel (hydroxypropylcellulose) (HPC) 102 % of control | dose: 150.0 mg/kg/injection, schedule: Q01DX009 (ip), vehicle: Klucel (hydroxypropylcellulose) (HPC) 91 % of control | dose: 150.0 mg/kg/injection, schedule: Q04DX003 (ip), vehicle: Klucel (hydroxypropylcellulose) (HPC) 97 % of control | dose: 300.0 mg/kg/injection, schedule: Q01DX009 (ip), vehicle: Klucel (hydroxypropylcellulose) (HPC) 89 % of control | dose: 300.0 mg/kg/injection, schedule: Q04DX003 (ip), vehicle: Klucel (hydroxypropylcellulose) (HPC) 102 % of control

Cc1ccc(C(=O)c2ccccc2Cc2ccc3ccccc3c2)cc1
inactive: dose: 50.0 mg/kg/injection, schedule: Q01DX001 (ip), vehicle: saline 100 % of control | dose: 100.0 mg/kg/injection, schedule: Q01DX001 (ip), vehicle: saline 94 % of control | dose: 200.0 mg/kg/injection, schedule: Q01DX001 (ip), vehicle: saline 96 % of control | dose: 400.0 mg/kg/injection, schedule: Q01DX001 (ip), vehicle: saline 93 % of control

Cc1cc(P(=O)(O)O)ccc1Cl
inactive: dose: 100.0 mg/kg/injection, schedule: Q01DX009 (ip), vehicle: acetone 87 % of control | dose: 200.0 mg/kg/injection, schedule: Q01DX009 (ip), vehicle: acetone 90 % of control

c1ccc2c(c1)Cc1ccccc1C2
inactive: dose: 100.0 mg/kg/injection, schedule: Q04DX002 (ip), vehicle: other 110 % of control | dose: 200.0 mg/kg/injection, schedule: Q04DX002 (ip), vehicle: other 94 % of control | dose: 400.0 mg/kg/injection, schedule: Q04DX002 (ip), vehicle: other 113 % of control

Cc1cc(C)c(C(=O)OC(c2ccccc2)C(C)c2ccccc2)c(C)c1 (stereo unspecified)
inactive: dose: 75.0 mg/kg/injection, schedule: Q01DX001 (ip), vehicle: saline 94 % of control | dose: 150.0 mg/kg/injection, schedule: Q01DX001 (ip), vehicle: saline 94 % of control | dose: 300.0 mg/kg/injection, schedule: Q01DX001 (ip), vehicle: saline 89 % of control

CC(=O)CC(C)=NCCN=C(C)CC(C)=O.[Ni]
inactive: dose: 1.56 mg/kg/injection, schedule: Q01DX009 (ip), vehicle: gum acacia 103 % of control | dose: 3.12 mg/kg/injection, schedule: Q01DX009 (ip), vehicle: gum acacia 104 % of control | dose: 6.25 mg/kg/injection, schedule: Q01DX009 (ip), vehicle: gum acacia 100 % of control | dose: 12.5 mg/kg/injection, schedule: Q01DX009 (ip), vehicle: gum acacia 99 % of control | dose: 12.5 mg/kg/injection, schedule: Q04DX003 (ip), vehicle: gum acacia 117 % of control | dose: 25.0 mg/kg/injection, schedule: Q04DX003 (ip), vehicle: gum acacia 118 % of control | dose: 50.0 mg/kg/injection, schedule: Q04DX003 (ip), vehicle: gum acacia 103 % of control

O=C(Nc1cccc2ccccc12)c1ccc(Cl)cc1Cl
inactive: [4] 103 % of control | [6] 100 % of control | [8] 96 % of control

NC1=NC(=O)C(c2ccccc2)(c2ccccc2)S1
inactive: dose: 100.0 mg/kg/injection, schedule: Q01DX001 (ip), vehicle: carboxymethylcellulose (CMC) 91 % of control | [4] 97 % of control | [10] 94 % of control | dose: 200.0 mg/kg/injection, schedule: Q01DX001 (ip), vehicle: carboxymethylcellulose (CMC) 98 % of control | [6] 97 % of control | dose: 200.0 mg/kg/injection, schedule: Q04DX002 (ip), vehicle: Klucel (hydroxypropylcellulose) (HPC) 90 % of control | dose: 400.0 mg/kg/injection, schedule: Q01DX001 (ip), vehicle: carboxymethylcellulose (CMC) 91 % of control | [8] 97 % of control | dose: 400.0 mg/kg/injection, schedule: Q04DX002 (ip), vehicle: Klucel (hydroxypropylcellulose) (HPC) 97 % of control

O=C(COc1ccc([N+](=O)[O-])cc1Cl)N1CCOCC1
inactive: [4] 103 % of control | [5] 98 % of control | [6] 97 % of control | [7] 103 % of control | [8] 101 % of control | [9] 95 % of control

Cc1cc(Cl)ccc1NC(=O)OCCOc1ccc([N+](=O)[O-])cc1
inactive: dose: 12.5 mg/kg/injection, schedule: Q01DX009 (ip), vehicle: saline with Tween-80 107 % of control | dose: 25.0 mg/kg/injection, schedule: Q01DX009 (ip), vehicle: saline with Tween-80 91 % of control | dose: 50.0 mg/kg/injection, schedule: Q01DX009 (ip), vehicle: saline with Tween-80 110 % of control

NC1(c2ccccc2)CC1
inactive: dose: 25.0 mg/kg/injection, schedule: Q04DX002 (ip), vehicle: Klucel (hydroxypropylcellulose) (HPC) 90 % of control | dose: 50.0 mg/kg/injection, schedule: Q04DX002 (ip), vehicle: Klucel (hydroxypropylcellulose) (HPC) 93 % of control | [10] 95 % of control and 98 % of control
